This note sets out measurements from patent US20240344020A1, “CULTURE MEDIUM FOR LUNG CANCER EPITHELIAL CELLS, CULTURE METHOD, AND APPLICATION THEREOF” (PRECEDO PHARMACEUTICALS CO., LTD, priority 2021, published 2024).

The labels stand for the following.
B1: fibroblast growth factor 7: growth factor from Sino Biological Inc. (protein, UniProt P21781 32-194, looked up)
Fibroblast growth factor 7: CNDMTPEQMATNVNCSSPERHTRSYDYMEGGDIRVRRLFCRTQWYLRIDKRGKVKGTQEMKNNYNIMEIRTVAVGIVAIKGVESEFYLAMNKEGKLYAKKECNEDCNFKELILENHYNTYASAKWTHNGGEMFVALNQKGIPVRGKKTKKEQKTAHFLPMAIT

For the assay, the system named is primary lung cancer cells (No. B5). Description: Effects of different factors added to basic medium BM on proliferation of primary lung cancer cells (cell count after 12 days). The format is cell-based, human. The note with it: factor added alone to BM at the concentrations of Table 3; 12 days culture; FIGS. 1A-D. The method, then:
Extracellular matrix gel (Matrigel®) (manufactured by BD Biosciences) was diluted with serum-free DMEM/F12 medium at a ratio of 1:100 to prepare an extracellular matrix diluent. The extracellular matrix diluent was added to a 48-well culture plate with 500 μl/well to completely cover the bottom of the wells of the culture plate. The culture plate was let stand for 1 hour in a 37° C. incubator. After 1 hour, the extracellular matrix diluent was removed to provide a Matrigel-coated plate.
Preparation of basic medium (abbreviated as BM): BM was prepared by adding 0.2 vol. % of Primocin (purchased from Invivogen, with a concentration of 50 mg/ml) to the commercial DMEM/F-12 medium to provide a final concentration of 100 μg/ml.
Next, different kinds and concentrations of additive factors (Table 3) were added to the basic medium (BM), so as to prepare culture mediums for lung cancer epithelial cells containing different additive components.
The culture mediums with different components were added at a volume of 500 μl/well to 48-well plates which were coated with extracellular matrix gel (Matrigel). Lung cancer cells (No. B5) isolated from lung cancer tissues according to the same method as described in Example 1 were inoculated at a cell density of 2×10^4 cells/cm^2 in the above-mentioned 48-well culture plates which were coated with Matrigel. After surface disinfection, the plates were placed in a 37° C., 5% CO2 incubator (purchased from Thermo Fisher), and the same number of freshly isolated lung cancer tumor cells (No. B5) were cultured under different medium formulations. The culture mediums were replaced every 4 days after the start of culture. After 12 days of culture, cell counts were performed. The basic medium (BM) without addition of any additive was used as a control. The results were shown in FIGS. 1A-D. The ordinate in the figures represents the ratio of the number of cells obtained after culture in different mediums to the number of cells obtained after culture in basic medium BM.
For the molecule `CN1C(=O)C(c2c(F)cccc2F)N(C)c2nc(Nc3ccc(S(N)(=O)=O)cc3)ncc21` (stereo not shown) [Compound 1, 4-((7-(2,6-difluorophenyl)-5,8-dimethyl-6-oxo-5,6,7,8-tetrahydropteridin-2-yl)amino)benzsulfamide], the “effect on cell proliferation (ratio of cell number to that in basic medium BM)” value is reported as “certain promoting effects on cell proliferation”.

As to `Cc1cccc(-c2nn(C(=S)Nc3ccccc3)cc2-c2ccnc3ccccc23)n1` [Compound A83-01, A83-01, reference compound], the “effect on cell proliferation (ratio of cell number to that in basic medium BM)” value is reported as “certain promoting effects on cell proliferation”. With `C[C@@H](N)[C@H]1CC[C@H](C(=O)Nc2ccncc2)CC1` [Compound Y27632, Y27632, reference compound], the “effect on cell proliferation (ratio of cell number to that in basic medium BM)” value is given as “certain promoting effects on cell proliferation”. For the molecule “hepatocyte growth factor: growth factor from Sino Biological Inc.”, the “effect on cell proliferation (ratio of cell number to that in basic medium BM)” value is “certain promoting effects on cell proliferation”. Next, “insulin-like growth factor 1: growth factor from Sino Biological Inc.”: “certain promoting effects on cell proliferation”; “interleukin 6: cytokine from Sino Biological Inc.”: “certain promoting effects on cell proliferation”; B1: “certain promoting effects on cell proliferation”.
